Data: US6914045B2, “Glycopeptide antibiotics” (Wyeth Holdings Corporation, priority 2001, dated 2005)
Values after ≈ are worked out from the molar mass of the structure shown.

Experiments:
[1] = test system: Enterococcus sp.; test: in vitro antibacterial evaluation, MIC by broth dilution; assay type: cell-based; settings: broth dilution, 18 hours at 35° C.
Outline: (§1)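 MIC, the lowest antibiotic concentration preventing growth, was read across 64-0.06 μg/mL with 5×10^5 CFU/mL inoculum. Method followed NCCLS M7-A2 broth dilution using Mueller-Hinton II; Gram-positive strains covered recent methicillin-, penicillin- and/or vancomycin-resistant clinical isolates.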

[2] = test system: Staphylococcus sp.; test: as above; assay type: cell-based
Outline: as §1

[3] = test system: Staphylococcus aureus-SMITH (GC 4543); test: acute lethal infection in mice; assay type: in vivo; settings: acute lethal infection, female CD-1 mice, intraperitoneal challenge, intravenous 30 min. after infection, 7 day survival
Protocol: Methods for in Vivo Antibacterial Evaluation
The therapeutic effects of glycopeptide antibiotics of Formula I are determined against acute lethal infections with S. aureus (strain Smith), a penicillin resistant strain of S. pneumoniae (strain GC 1894), and a vancomycin resistant strain of E. fecalis (strain GC 6189 and GC 2246). Female mice, CD-1 (Charles River Laboratories), 20+/−2 gm, are challenged by intraperitoneal injection of sufficient bacteria (suspended in /trypticase Soy Broth or hog gastric mucin) to kill non-treated controls within 24-48 hr. Antibacterial agents, contained in 0.2 mL of saline or 5% dextrose solution, are administered intravenously 30 min. after infection. Five mice are treated at each dose level. The 7 day survival ratios from 3 separate tests are pooled for calculation of median effective dose (ED50).

[4] = test system: Escherichia coli; test: in vitro antibacterial evaluation, MIC by broth dilution; assay type: cell-based; settings: 18 hours at 35° C.
Outline: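 MIC is the lowest antibiotic concentration (tested 64-0.06 μg/mL) preventing growth of a 5×10^5 CFU/mL inoculum. Determined by broth dilution in Mueller-Hinton II medium following NCCLS standard M7-A2.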

[5] = Enterococcus faecalis (ATCC 29212)
[6] = Enterococcus faecalis (GC 4552)
[7] = broth dilution, 18 hours at 35° C.
[8] = strain ATCC 29213; broth dilution, 18 hours at 35° C.
[9] = strain GC 1131; broth dilution, 18 hours at 35° C.
[10] = strain GC 4535; broth dilution, 18 hours at 35° C.
[11] = strain GC 4536; broth dilution, 18 hours at 35° C.

Structure (SMILES): CCCCCCC(=O)OCC1OC(OC2C(CO)OC(Oc3ccc(CC4NC(=O)C(C(C)c5ccccc5)NC(=O)CNC(=O)C(CO)NC(=O)C(C(O)C5CNC(=N)N5C5OC(CO)C(O)C(O)C5O)NC(=O)C(C(O)C5CNC(=N)N5)NC4=O)cc3)C(O)C2O)C(O)C(O)C1O (stereo not drawn) [Example 97b, Cyclo[glycyl-β-methylphenylalanyl-O-[4-O-(6-O-heptanoylhexopyranosyl)hexopyranosyl]-tyrosyl-3-(2-iminoimidazolidin-4-yl)seryl-3-(3-hexopyranosyl-2-iminoimidazolidin-4-yl)-serylseryl]]
- MIC Enterococcus faecalis (ATCC 29212) [1, 5]: 4 µg/mL (≈ 2.84 µM)
- MIC Enterococcus faecalis (GC 2242) ([1]; Enterococcus faecalis (GC 2242)): 2 µg/mL (≈ 1.42 µM)
- MIC Enterococcus faecalis (GC 4552) [1, 6]: 4 µg/mL (≈ 2.84 µM)
- MIC Enterococcus faecalis (ATCC 29212) [1]: 4 µg/mL (≈ 2.84 µM)
- MIC Enterococcus faecalis (GC 2242) [1]: 2 µg/mL (≈ 1.42 µM)
- MIC Enterococcus faecalis (GC 4552) [1]: 4 µg/mL (≈ 2.84 µM)
- MIC Coagulase Negative Staphylococcus (GC 4537) [2, 7]: 1 µg/mL (≈ 0.711 µM)
- MIC Coagulase Negative Staphylococcus (GC 4538) [2, 7]: 1 µg/mL (≈ 0.711 µM)
- MIC Coagulase Negative Staphylococcus (GC 4547) [2, 7]: 1 µg/mL (≈ 0.711 µM)
- MIC Coagulase Negative Staphylococcus (GC 4537) ([2]; broth dilution, 18 hours at 35° C.; strain GC 4537): 1 µg/mL (≈ 0.711 µM)
- MIC Coagulase Negative Staphylococcus (GC 4538) ([2]; broth dilution, 18 hours at 35° C.; strain GC 4538): 1 µg/mL (≈ 0.711 µM)
- MIC Coagulase Negative Staphylococcus (GC 4547) ([2]; broth dilution, 18 hours at 35° C.; strain GC 4547): 1 µg/mL (≈ 0.711 µM)
- MIC Staphylococcus aureus (ATCC 29213) [2, 8]: 1 µg/mL (≈ 0.711 µM)
- MIC Staphylococcus aureus (GC 1131) [2, 9]: 1 µg/mL (≈ 0.711 µM)
- MIC Staphylococcus aureus (GC 4535) [2, 10]: 1 µg/mL (≈ 0.711 µM)
- MIC Staphylococcus aureus-SMITH (GC 4536) [2, 11]: 0.5 µg/mL (≈ 0.355 µM)
- median effective dose (ED50), Staphylococcus aureus-SMITH (GC 4543) [3]: 8 mg/kg
- MIC Escherichia coli (GC 4559) [4]: 32 µg/mL (≈ 22.7 µM)
- MIC Escherichia coli (GC 4560) [4]: 1 µg/mL (≈ 0.711 µM)

Structure (SMILES): CCCCCC(=O)OCC1OC(OC2C(CO)OC(Oc3ccc(CC4NC(=O)C(C(C)c5ccccc5)NC(=O)CNC(=O)C(CO)NC(=O)C(C(O)C5CNC(=N)N5C5OC(CO)C(O)C(O)C5O)NC(=O)C(C(O)C5CNC(=N)N5)NC4=O)cc3)C(O)C2O)C(O)C(O)C1O (stereo not drawn) [Example 95b, Cyclo[glycyl-β-methylphenylalanyl-O-[4-O-(6-O-hexanoylhexopyranosyl)hexopyranosyl]-tyrosyl-3-(2-iminoimidazolidin-4-yl)seryl-3-(3-hexopyranosyl-2-iminoimidazolidin-4-yl)-serylseryl]]
- MIC Enterococcus faecalis (ATCC 29212) [1, 5]: 4 µg/mL (≈ 2.87 µM)
- MIC Enterococcus faecalis (GC 4552) [1, 6]: 8 µg/mL (≈ 5.74 µM)
- MIC Enterococcus faecalis (ATCC 29212) [1]: 4 µg/mL (≈ 2.87 µM)
- MIC Enterococcus faecalis (GC 2242) [1]: 8 µg/mL (≈ 5.74 µM)
- MIC Enterococcus faecalis (GC 4552) [1]: 8 µg/mL (≈ 5.74 µM)
- MIC Enterococcus faecalis (GC 2242) ([1]; strain GC 2242): 8 µg/mL (≈ 5.74 µM)
- MIC Coagulase Negative Staphylococcus (GC 4537) [2, 7]: 2 µg/mL (≈ 1.44 µM)
- MIC Coagulase Negative Staphylococcus (GC 4538) [2, 7]: 1 µg/mL (≈ 0.718 µM)
- MIC Coagulase Negative Staphylococcus (GC 4547) [2, 7]: 1 µg/mL (≈ 0.718 µM)
- MIC Staphylococcus aureus (ATCC 29213) [2, 8]: 1 µg/mL (≈ 0.718 µM)
- MIC Staphylococcus aureus (GC 1131) [2, 9]: 1 µg/mL (≈ 0.718 µM)
- MIC Staphylococcus aureus (GC 4535) [2, 10]: 2 µg/mL (≈ 1.44 µM)
- MIC Staphylococcus aureus-SMITH (GC 4536) [2, 11]: 1 µg/mL (≈ 0.718 µM)
- MIC Coagulase Negative Staphylococcus (GC 4537) ([2]; strain GC 4537; broth dilution, 18 hours at 35° C.): 2 µg/mL (≈ 1.44 µM)
- MIC Coagulase Negative Staphylococcus (GC 4538) ([2]; strain GC 4538; broth dilution, 18 hours at 35° C.): 1 µg/mL (≈ 0.718 µM)
- MIC Coagulase Negative Staphylococcus (GC 4547) ([2]; strain GC 4547; broth dilution, 18 hours at 35° C.): 1 µg/mL (≈ 0.718 µM)
- median effective dose (ED50), Staphylococcus aureus-SMITH (GC 4543) [3]: 4 mg/kg
- MIC Escherichia coli (GC 4559) [4]: 64 µg/mL (≈ 45.9 µM)
- MIC Escherichia coli (GC 4560) [4]: <0.5 µg/mL
